Assay results: patent US11446287B2, “Compounds and methods for EP300 or CBP modulation and indications therefor” (Opna Immuno-Oncology SA, priority 2019, dated 2022)

Biological target: T1, Recombinant human BRD4 containing dual bromodomains (BRD4-BD12 (1-477)) (Homo sapiens, UniProt O60885)
T1 construct: Recombinant human BRD4 containing dual bromodomains (BRD4-BD12 (1-477)); made in house; host or cells: E. coli BL21-CodonPlus (DE3), modified pET vector
Test: BRD4 Alphascreen binding assay
Method in brief: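 AlphaScreen proximity between Ni-chelate-bound BRD4-BD12 (1-477) and streptavidin-captured H4 K5/K8/K12/K16-acetyl peptide measured after 1 h room-temperature compound incubation and 30 min with 7.5 μg/ml beads. Buffer: 50 mM HEPES pH 7.5, 50 mM NaCl, 0.01% BSA, 0.01% Triton X-100; data plate-normalized and four-parameter fit for IC50.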

First: Cc1nnn(C)c1-c1cnc2c(c1)c(-c1ccc(C(=O)O)cc1OC1CC1)cn2C1CCOCC1 [P-0413, 3-cyclopropoxy-4-(5-(1,4-dimethyl-1H-1,2,3-triazol-5-yl)-1-(tetrahydro-2H-pyran-4-yl)-1H-pyrrolo[2,3-b]pyridin-3-yl)benzoic acid]
Second: CCOc1cc(C(=O)O)ncc1-c1cn(C2CCOCC2)c2ncc(-c3c(C)noc3C)cc12 [P-0428, 5-(5-(3,5-dimethylisoxazol-4-yl)-1-(tetrahydro-2H-pyran-4-yl)-1H-pyrrolo[2,3-b]pyridin-3-yl)-4-ethoxypicolinic acid]
The IC50 of the first is higher: 1 to 8 µM for the first, 0.0001 to 1 µM for the second. The second is the more potent here.

`CCOc1cc(C(=O)O)nc(OCC)c1-c1cn(-c2ccccc2F)c2ncc(-c3c(C)noc3C)cc12` [P-0414, 5-(5-(3,5-dimethylisoxazol-4-yl)-1-(2-fluorophenyl)-1H-pyrrolo[2,3-b]pyridin-3-yl)-4,6-diethoxypicolinic acid] and `CCOc1cc(C(=O)O)nc(OCC)c1-c1cn(-c2ccc(C#N)cc2F)c2ncc(-c3c(C)noc3C)cc12` [P-0423, 5-(1-(4-cyano-2-fluorophenyl)-5-(3,5-dimethylisoxazol-4-yl)-1H-pyrrolo[2,3-b]pyridin-3-yl)-4,6-diethoxypicolinic acid] fall in the same range of IC50: 1 to 8 µM for the first, 1 to 8 µM for the second.

First: CCOc1cc(C(=O)O)nc(OCC)c1-c1cn([C@@H](C)c2ccccn2)c2ncc(-c3c(C)noc3C)cc12 [P-0415, (S)-5-(5-(3,5-dimethylisoxazol-4-yl)-1-(1-(pyridin-2-yl)ethyl)-1H-pyrrolo[2,3-b]pyridin-3-yl)-4,6-diethoxypicolinic acid]
Second: CCOc1cc(C(=O)O)nc(OCC)c1-c1cn(-c2cccnc2)c2ncc(-c3c(C)noc3C)cc12 [P-0436, 5-(5-(3,5-dimethylisoxazol-4-yl)-1-(pyridin-3-yl)-1H-pyrrolo[2,3-b]pyridin-3-yl)-4,6-diethoxypicolinic acid]
The IC50 of the first is higher: 8 to 1000 µM for the first, 1 to 8 µM for the second. The second is the more potent here.

`CCOc1nc(C(=O)O)c(C)cc1-c1cn(C(C2CC2)C2CC2)c2ncc(-c3c(C)noc3C)cc12` [P-0416, 5-(1-(dicyclopropylmethyl)-5-(3,5-dimethylisoxazol-4-yl)-1H-pyrrolo[2,3-b]pyridin-3-yl)-6-ethoxy-3-methylpicolinic acid] and `CCOc1nc(C(=O)O)cc(C)c1-c1cn(C(C2CC2)C2CC2)c2ncc(-c3c(C)noc3C)cc12` [P-0417, 5-(1-(dicyclopropylmethyl)-5-(3,5-dimethylisoxazol-4-yl)-1H-pyrrolo[2,3-b]pyridin-3-yl)-6-ethoxy-4-methylpicolinic acid] fall in the same range of IC50: 8 to 1000 µM for the first, 8 to 1000 µM for the second.

First: Cc1noc(C)c1-c1cnc2c(c1)c(-c1ccnc(C(=O)O)c1C)cn2C(C1CC1)C1CC1 [P-0418, 4-(1-(dicyclopropylmethyl)-5-(3,5-dimethylisoxazol-4-yl)-1H-pyrrolo[2,3-b]pyridin-3-yl)-3-methylpicolinic acid]
Second: CCOc1cc(C(=O)O)ncc1-c1cn(C(C2CC2)C2CC2)c2ncc(-c3c(C)noc3C)cc12 [P-0427, 5-(1-(dicyclopropylmethyl)-5-(3,5-dimethylisoxazol-4-yl)-1H-pyrrolo[2,3-b]pyridin-3-yl)-4-ethoxypicolinic acid]
The IC50 of the first is lower: 0.0001 to 1 µM for the first, 1 to 8 µM for the second.

First: Cc1noc(C)c1-c1cnc2c(c1)c(-c1ccnc(C(=O)O)c1C)cn2C1CCOCC1 [P-0419, 4-(5-(3,5-dimethylisoxazol-4-yl)-1-(tetrahydro-2H-pyran-4-yl)-1H-pyrrolo[2,3-b]pyridin-3-yl)-3-methylpicolinic acid]
Second: CCOc1cc(C(=O)O)nc(OCC)c1-c1cn(C2CCC(F)(F)CC2)c2ncc(-c3c(C)noc3C)cc12 [P-0425, 5-(1-(4,4-difluorocyclohexyl)-5-(3,5-dimethylisoxazol-4-yl)-1H-pyrrolo[2,3-b]pyridin-3-yl)-4,6-diethoxypicolinic acid]
The IC50 of the first is lower: 0.0001 to 1 µM for the first, 8 to 1000 µM for the second. The first is the more potent here.

`CCOc1cc(C(=O)O)nc(OCC)c1-c1cn(C(C2CC2)C2CC2)c2ncc(-c3c(C)noc3C)cc12` [P-0420, 5-(1-(dicyclopropylmethyl)-5-(3,5-dimethylisoxazol-4-yl)-1H-pyrrolo[2,3-b]pyridin-3-yl)-4,6-diethoxypicolinic acid] and `CCOc1cc(C(=O)O)nc(OCC)c1-c1cn(C2CCN(S(C)(=O)=O)CC2)c2ncc(-c3c(C)noc3C)cc12` [P-0435, 5-(5-(3,5-dimethylisoxazol-4-yl)-1-(1-(methylsulfonyl)piperidin-4-yl)-1H-pyrrolo[2,3-b]pyridin-3-yl)-4,6-diethoxypicolinic acid] fall in the same range of IC50: 8 to 1000 µM for the first, 8 to 1000 µM for the second.

`CCOc1cc(C(=O)O)nc(OCC)c1-c1cn(-c2ncccc2C#N)c2ncc(-c3c(C)noc3C)cc12` [P-0421, 5-(1-(3-cyanopyridin-2-yl)-5-(3,5-dimethylisoxazol-4-yl)-1H-pyrrolo[2,3-b]pyridin-3-yl)-4,6-diethoxypicolinic acid] and `CCOc1cc(C(=O)O)nc(OCC)c1-c1cn(-c2ncccc2C(N)=O)c2ncc(-c3c(C)noc3C)cc12` [P-0422, 5-(1-(3-carbamoylpyridin-2-yl)-5-(3,5-dimethylisoxazol-4-yl)-1H-pyrrolo[2,3-b]pyridin-3-yl)-4,6-diethoxypicolinic acid] fall in the same range of IC50: 8 to 1000 µM for the first, 8 to 1000 µM for the second.

`CCOc1cc(C(=O)O)nc(OCC)c1-c1cn(-c2cnc(C3CC3)nc2)c2ncc(-c3c(C)noc3C)cc12` [P-0424, 5-(1-(2-cyclopropylpyrimidin-5-yl)-5-(3,5-dimethylisoxazol-4-yl)-1H-pyrrolo[2,3-b]pyridin-3-yl)-4,6-diethoxypicolinic acid] and `CCOc1cc(C(=O)O)nc(OCC)c1-c1cn(-c2cn(CC)nc2C)c2ncc(-c3c(C)noc3C)cc12` [P-0430, 5-(5-(3,5-dimethylisoxazol-4-yl)-1-(1-ethyl-3-methyl-1H-pyrazol-4-yl)-1H-pyrrolo[2,3-b]pyridin-3-yl)-4,6-diethoxypicolinic acid] fall in the same range of IC50: 1 to 8 µM for the first, 1 to 8 µM for the second.

`CCOc1cc(C(=O)O)nc(OCC)c1-c1cn(-c2cn(C(F)F)nc2C)c2ncc(-c3c(C)noc3C)cc12` [P-0429, 5-(1-(1-(difluoromethyl)-3-methyl-1H-pyrazol-4-yl)-5-(3,5-dimethylisoxazol-4-yl)-1H-pyrrolo[2,3-b]pyridin-3-yl)-4,6-diethoxypicolinic acid] and `CCOc1cc(C(=O)OC)nc(OCC)c1-c1cn(-c2ccc(F)cc2F)c2ncc(-c3c(C)noc3C)cc12` [P-0432, methyl 5-(1-(2,4-difluorophenyl)-5-(3,5-dimethylisoxazol-4-yl)-1H-pyrrolo[2,3-b]pyridin-3-yl)-4,6-diethoxypicolinate] fall in the same range of IC50: 8 to 1000 µM for the first, 8 to 1000 µM for the second.

First: CCOc1cc(C(=O)O)nc(OCC)c1-n1cc(-c2ccc(F)cc2F)c2ncc(-c3c(C)noc3C)cc21 [P-0431, 5-(3-(2,4-difluorophenyl)-6-(3,5-dimethylisoxazol-4-yl)-1H-pyrrolo[3,2-b]pyridin-1-yl)-4,6-diethoxypicolinic acid]
Second: CCOc1cc(C(=O)O)nc(OCC)c1-c1cn(C2CCN(C(=O)OC(C)(C)C)CC2)c2ncc(-c3c(C)noc3C)cc12 [P-0433, 5-(1-(1-(tert-butoxycarbonyl)piperidin-4-yl)-5-(3,5-dimethylisoxazol-4-yl)-1H-pyrrolo[2,3-b]pyridin-3-yl)-4,6-diethoxypicolinic acid]
The IC50 of the first is lower: 1 to 8 µM for the first, 8 to 1000 µM for the second. The first is the more potent here.

Compound `Cc1noc(C)c1-c1cnc2c(c1)c(C1CCC(C(=O)O)CC1)cn2-c1ccc(F)cc1F` (centres unmarked) [P-0434, 4-(1-(2,4-difluorophenyl)-5-(3,5-dimethylisoxazol-4-yl)-1H-pyrrolo[2,3-b]pyridin-3-yl)cyclohexane-1-carboxylic acid] has an IC50 of 1 to 8 µM.
